Measured values reported in the NIST ThermoML archive (doi:10.1021/acs.jced.9b00536).

Assay: refractive index (Na D-line) (dimensionless); wn = mass fraction of the nth substance listed
Conditions: 100 kPa, Liquid, Standard Abbe refractometry

[Na+].[OH-] [sodium hydroxide] + O
refractive index
Conditions	283.15 K	288.15 K	293.15 K	298.15 K	303.15 K	308.15 K
w1 = 0.2	1.3856	1.3847	1.3838	1.3829	1.382	1.3811
w1 = 0.21	1.3875	1.3866	1.3858	1.3849	1.384	1.3832
w1 = 0.22	1.3904	1.3895	1.3886	1.3878	1.3869	1.386
w1 = 0.23	1.3922	1.3912	1.3903	1.3893	1.3882	1.3874
w1 = 0.24	1.3941	1.3932	1.3923	1.3914	1.3905	1.3896
w1 = 0.25	1.3969	1.3961	1.3952	1.3943	1.3934	1.3925
w1 = 0.26	1.3991	1.3982	1.3974	1.3965	1.3956	1.3947
w1 = 0.27	1.4009	1.4	1.3991	1.3982	1.3973	1.3964
w1 = 0.28	1.4028	1.4019	1.4011	1.4002	1.3993	1.3983
w1 = 0.29	1.4053	1.4044	1.4035	1.4026	1.4017	1.4008
w1 = 0.3	1.4066	1.4056	1.4048	1.4038	1.4029	1.402
w1 = 0.31	1.4087	1.4077	1.4068	1.4059	1.405	1.4041
w1 = 0.32	1.4099	1.4091	1.4081	1.4073	1.4063	1.4055
w1 = 0.33	1.4115	1.4107	1.4097	1.4088	1.4079	1.407
w1 = 0.34	1.4141	1.4132	1.4123	1.4114	1.4105	1.4096
w1 = 0.35	1.416	1.4151	1.4142	1.4133	1.4123	–
w1 = 0.36	1.4175	1.4167	1.4158	1.4148	1.4139	–
w1 = 0.37	1.419	1.4181	1.4172	1.4163	1.4154	–
w1 = 0.38	1.4209	1.42	1.4191	1.4182	1.4173	–
w1 = 0.39	1.4226	1.4217	1.4208	1.4199	1.4189	–
w1 = 0.4	1.4241	1.4232	1.4223	1.4214	1.4205	–
w1 = 0.41	1.4252	1.4243	1.4234	1.4225	1.4215	–
w1 = 0.42	1.4269	1.426	1.425	1.4241	1.4231	–
w1 = 0.43	1.4281	1.4272	1.4263	1.4254	1.4245	–
w1 = 0.44	1.4293	1.4284	1.4274	1.4265	1.4255	–
w1 = 0.45	1.4303	1.4295	1.4286	1.4276	1.4267	–
w1 = 0.46	1.4321	1.4312	1.4303	1.4293	1.4284	–
w1 = 0.47	1.4332	1.4323	1.4314	1.4304	1.4294	–
w1 = 0.48	1.4347	1.4338	1.4329	1.432	1.4311	–
w1 = 0.49	1.4356	1.4347	1.4338	1.4328	1.4318	–
w1 = 0.5	1.4365	1.4355	1.4346	1.4337	1.4328	–
